Measured values taken from US11530217B1, “Antitubercular compounds” (priority 2022, dated 2022).
≈ marks a conversion by molar mass, not a printed value.

System: rifampicin and isoniazid-resistant MTB strain (MDR-MTB)
Assay: microbe, parasite or virus in culture
Type: cell-based
Details: Mycobacterium tuberculosis, 192 h, read-out: MIC (μg/mL) MDR-MTB

| Compound | MIC |
| --- | --- |
| COC(=O)c1c(C(=O)OC)c2c(C)cc(C)cn2c1C(=O)c1ccc(Cl)cc1 [Compound 5d, Dimethyl 3-(4-chlorobenzoyl)-6,8-dimethylindolizine-1,2-dicarboxylate] | 64 µg/mL (≈ 160 µM) |
| CCOC(=O)c1cc(C(=O)c2ccc(C#N)cc2)n2cc(C)cc(C)c12 [Compound 5j, Ethyl 3-(4-cyanobenzoyl)-6,8-dimethylindolizine-1-carboxylate] | 4 µg/mL (≈ 11.5 µM) |
| CCOC(=O)c1cc(C(=O)c2ccc(Cl)cc2)n2cc(C)cc(C)c12 [Compound 5c, Ethyl 3-(4-chlorobenzoyl)-6,8-dimethylindolizine-1-carboxylate] | 1 µg/mL (≈ 2.81 µM) |
| CCOC(=O)c1cc(C(=O)c2ccc(C)cc2)n2cc(C)cc(C)c12 [Compound 5k, Ethyl 6,8-dimethyl-3-(4-methylbenzoyl)indolizine-1-carboxylate] | 4 µg/mL (≈ 11.9 µM) |
| COC(=O)c1c(C(=O)OC)c2c(C)cc(C)cn2c1C(=O)c1ccc(C#N)cc1 [Compound 5l, Dimethyl 3-(4-cyanobenzoyl)-6,8-dimethylindolizine-1,2-dicarboxylate] | 8 µg/mL (≈ 20.5 µM) |
| CCOC(=O)c1cc(C(=O)c2cc(C(F)(F)F)cc(C(F)(F)F)c2)n2cc(C)cc(C)c12 [Compound 5i, Ethyl 3-(3,5-bis(trifluoromethyl)benzoyl)-6,8-dimethylindolizine-1-carboxylate] | 16 µg/mL (≈ 35 µM) |
| CCOC(=O)c1cc(C(=O)c2ccc(F)cc2)n2cc(C)cc(C)c12 [Compound 5g, Ethyl 3-(4-fluorobenzoyl)-6,8-dimethylindolizine-1-carboxylate] | 4 µg/mL (≈ 11.8 µM) |
| COC(=O)c1c(C(=O)OC)c2c(C)cc(C)cn2c1C(=O)c1ccc(OC)cc1 [Compound 5b, Dimethyl 3-(4-methoxybenzoyl)-6,8-dimethylindolizine-1,2-dicarboxylate] | 64 µg/mL (≈ 162 µM) |
| CCOC(=O)c1cc(C(=O)c2ccccc2[N+](=O)[O-])n2cc(C)cc(C)c12 [Compound 5h, Ethyl 6,8-dimethyl-3-(2-nitrobenzoyl)indolizine-1-carboxylate] | 4 µg/mL (≈ 10.9 µM) |
| COC(=O)c1c(C(=O)OC)c2c(C)cc(C)cn2c1C(=O)c1ccc(C)cc1 [Compound 5m, Dimethyl 6,8-dimethyl-3-(4-methylbenzoyl)indolizine-1,2-dicarboxylate] | 1 µg/mL (≈ 2.64 µM) |
